The record followed here is PMC10108353, “Design and Pharmacological Characterization of α4β1 Integrin Cyclopeptide Agonists: Computational Investigation of Ligand Determinants for Agonism versus Antagonism” (Journal of Medicinal Chemistry, 2023).

The target in assay [1] is T1, α4β7 integrin (Homo sapiens, UniProt P13612+P26010).
T1 construct: RPMI8866 cells expressing α4β7 integrin to the ligand MAdCAM-1; endogenous in cells; host or cells: RPMI8866
T1 sequence (P13612 34-1032): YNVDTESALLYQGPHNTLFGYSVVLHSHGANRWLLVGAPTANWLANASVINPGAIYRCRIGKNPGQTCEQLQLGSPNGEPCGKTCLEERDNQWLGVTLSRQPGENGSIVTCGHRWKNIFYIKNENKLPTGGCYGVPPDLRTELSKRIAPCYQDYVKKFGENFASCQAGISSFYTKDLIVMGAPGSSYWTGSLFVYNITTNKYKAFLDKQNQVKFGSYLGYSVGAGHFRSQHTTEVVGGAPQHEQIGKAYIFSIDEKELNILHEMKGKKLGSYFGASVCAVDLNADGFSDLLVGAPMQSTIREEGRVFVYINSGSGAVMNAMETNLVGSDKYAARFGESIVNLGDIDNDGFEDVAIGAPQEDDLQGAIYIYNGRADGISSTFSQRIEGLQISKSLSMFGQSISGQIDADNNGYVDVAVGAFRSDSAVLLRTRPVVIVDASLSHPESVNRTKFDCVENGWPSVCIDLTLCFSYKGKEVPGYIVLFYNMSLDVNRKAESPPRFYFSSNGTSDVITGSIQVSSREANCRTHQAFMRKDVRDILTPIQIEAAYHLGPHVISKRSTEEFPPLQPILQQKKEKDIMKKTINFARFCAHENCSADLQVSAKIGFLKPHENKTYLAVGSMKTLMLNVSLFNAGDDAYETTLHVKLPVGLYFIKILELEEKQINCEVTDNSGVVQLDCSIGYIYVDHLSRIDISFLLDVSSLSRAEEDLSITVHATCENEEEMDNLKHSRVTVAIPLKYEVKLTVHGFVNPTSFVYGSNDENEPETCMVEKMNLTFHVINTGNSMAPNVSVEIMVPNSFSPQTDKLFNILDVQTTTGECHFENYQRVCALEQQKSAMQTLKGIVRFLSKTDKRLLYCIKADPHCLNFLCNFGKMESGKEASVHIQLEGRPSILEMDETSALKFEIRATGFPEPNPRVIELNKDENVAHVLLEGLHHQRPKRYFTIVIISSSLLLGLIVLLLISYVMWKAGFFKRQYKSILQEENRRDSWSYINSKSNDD
T1 sequence (P26010 20-798): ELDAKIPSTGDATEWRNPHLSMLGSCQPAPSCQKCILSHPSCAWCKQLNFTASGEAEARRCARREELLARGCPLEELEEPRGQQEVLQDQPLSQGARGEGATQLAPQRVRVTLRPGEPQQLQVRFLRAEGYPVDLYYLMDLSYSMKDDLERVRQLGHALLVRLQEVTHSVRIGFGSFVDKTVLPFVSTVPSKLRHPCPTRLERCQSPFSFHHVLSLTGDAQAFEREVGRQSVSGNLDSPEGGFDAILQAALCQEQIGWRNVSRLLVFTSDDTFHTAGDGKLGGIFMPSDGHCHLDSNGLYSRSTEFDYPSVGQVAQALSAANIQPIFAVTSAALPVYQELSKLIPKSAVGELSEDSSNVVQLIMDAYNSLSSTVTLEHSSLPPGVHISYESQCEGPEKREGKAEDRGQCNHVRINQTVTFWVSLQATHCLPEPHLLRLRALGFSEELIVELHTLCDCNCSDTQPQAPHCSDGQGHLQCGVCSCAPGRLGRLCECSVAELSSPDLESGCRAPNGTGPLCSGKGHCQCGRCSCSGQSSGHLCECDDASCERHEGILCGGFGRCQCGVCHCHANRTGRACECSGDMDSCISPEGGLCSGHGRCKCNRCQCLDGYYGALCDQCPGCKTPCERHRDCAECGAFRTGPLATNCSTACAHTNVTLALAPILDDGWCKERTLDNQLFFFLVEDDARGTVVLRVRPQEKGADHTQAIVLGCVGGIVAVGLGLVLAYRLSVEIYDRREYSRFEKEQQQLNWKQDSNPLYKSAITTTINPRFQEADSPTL
The assay is described as follows: cell-based. The settings on record: for IC50: reduction of cell adhesion, >5000 = inactive compounds (IC50/EC50), read-out: IC50 for antagonists, MAdCAM-1/RPMI8866 α4β7. Format: cell-based. The text has this:
(§1) mediated Jurkat cell adhesion to FN.

Assay [2] concerns the target αMβ2 integrin (Homo sapiens, UniProt P05107+P11215). The assay is described as follows: HL60 cell adhesion to fibrinogen (Fg). Format: cell-based. The settings on record: read-out: IC50 for antagonists, Fg/HL60 αMβ2.
Source text: as §1

For assay [3], the target named is T2, α4β1 integrin (Homo sapiens, UniProt P05556+P13612). The assay is described as follows: Jurkat E6.1 cell adhesion to FN. The settings on record: for agonist or antagonist behaviour, FN/Jurkat E6.1 α4β1: agonist = adhesion index >1, antagonist = adhesion index <1.
For assay [4], the target named is T2, α4β1 integrin. The assay is described as follows: Competitive solid-phase binding assay, purified α4β1 / FN. The arrangement: purchased R&D Systems. The settings on record: mean ± SD, three experiments in triplicate, read-out: Binding affinity IC50, α4β1/FN. On the procedure: (§2) For the evaluation of binding affinity to purified α4β1, αMβ2, and α4β7 integrins, competitive solid-phase ligand binding assays were performed as follows. […] Afterward, each well was washed and blocked for 1 h at RT. Purified integrins (α4β1: 0.5 μg/mL; α4β7: 0.5 μg/mL; αMβ2: 0.5 μg/mL; R&D Systems) were preincubated with serial dilutions of new compounds (10^–4 – 10^–10 M) for 30 min at RT and then plated into coated wells for 1 h at RT. After two washes, primary antibody (for α4β1 and α4β7: rabbit anti-α4, Abcam, 1:100 dilution; for αMβ2: rabbit anti-αM, Abcam, 1:100 dilution) was added and incubated for 1 h at RT. The plate was washed twice and then was incubated with anti-rabbit AlexaFluor488 secondary antibody (1:400 dilution, ThermoFischer Scientific) for 1 h at RT. After washing three times, fluorescence was measured as described in the previous section.

The target in assay [5] is T2, α4β1 integrin. The assay is described as follows: Competitive solid-phase binding assay, purified α4β1 / VCAM-1. The following applies: read-out: Binding affinity IC50, α4β1/VCAM-1. On the set-up: purchased R&D Systems. The procedure: as §2
The target of assay [6] is α5β1 integrin (Homo sapiens, UniProt P05556+P08648). The assay is described as follows: Competitive solid-phase binding assay, purified α5β1 / FN. The following applies: read-out: Binding affinity IC50, α5β1/FN. The procedure: Solid-phase ligand binding assays on purified integrin were conducted as previously described[34] with the following modifications. […] The following day, wells were blocked with TSB buffer (20 mM Tris-HCl, 150 mM NaCl, 1 mM CaCl2, 1 mM MgCl2, 1 mM MnCl2, pH 7.5, 1% BSA) for 1 h at room temperature. Purified α5β1 (10 μg/mL) or αLβ2 (7 μg/mL) was incubated with the new synthesized compounds, at different concentrations (10^–4 to 10^–10 M), in coated wells for 1 h at RT. Then, after three washes with PBST buffer, primary antibody (anti-α5β1, BD Bioscience, 1:100 dilution or anti-αL, Abcam, 1:200 dilution) was added for 1 h at RT. Then antirabbit AlexaFluor488-secondary antibody (ThermoFisher Scientific, 1:400 dilution) was added after three washes with PBST buffer and incubated 1 h at room temperature.

As to `Cc1ccccc1NC(=O)N1C(=O)CC1CC(=O)O` (centres unmarked) [1a], the “agonist or antagonist behaviour, MAdCAM-1/RPMI8866 α4β7” value in assay [1] (agonist = adhesion index >1, antagonist = adhesion index <1) is “inactive”. Also, the IC50 in assay [1] is over 5000 nM; in assay [2], over 5000 nM; in assay [4] it was 13.3 ± 6.3 nM; in assay [5], 10.1 ± 4.9 nM; in assay [6], over 5000 nM. Also, the “agonist or antagonist behaviour, FN/Jurkat E6.1 α4β1” value in assay [3] is reported as “agonist”. Also, the EC50 in assay [3] (read-out: EC50 for agonists, FN/Jurkat E6.1 α4β1, increase of cell adhesion, mean ± SD, three experiments in quadruplicate) worked out at 15.6 ± 1.5 nM.

Regarding `Cc1ccccc1NC(=O)N1C(=O)CC1CC(=O)NCC(=O)O` (centres unmarked) [1b], the IC50 was over 5000 nM in assay [1]; over 5000 nM in assay [2]; over 5000 nM in assay [4]; over 5000 nM in assay [5]; 49 ± 7 nM in assay [6]. In assay [3], the “agonist or antagonist behaviour, FN/Jurkat E6.1 α4β1” value was “completely ineffective”.
